Tests used:
Design in all cases: scale not given: the % may be the effect or the level left
[1] = biological target: T1, Serine/threonine-protein kinase BRSK2 (Homo sapiens) (UniProt Q8IWQ3); assay: Inhibition of human BRSK2 assessed as enzyme activity at 1 uM using KKLNRTLSFAEPG as substrate preincubated for 20 mins followed by [gamma-33P]-ATP addition and measured after 120 mins by radiometric Hot-SpotSM Kinase assay relative to control
T1 sequence (whole entry): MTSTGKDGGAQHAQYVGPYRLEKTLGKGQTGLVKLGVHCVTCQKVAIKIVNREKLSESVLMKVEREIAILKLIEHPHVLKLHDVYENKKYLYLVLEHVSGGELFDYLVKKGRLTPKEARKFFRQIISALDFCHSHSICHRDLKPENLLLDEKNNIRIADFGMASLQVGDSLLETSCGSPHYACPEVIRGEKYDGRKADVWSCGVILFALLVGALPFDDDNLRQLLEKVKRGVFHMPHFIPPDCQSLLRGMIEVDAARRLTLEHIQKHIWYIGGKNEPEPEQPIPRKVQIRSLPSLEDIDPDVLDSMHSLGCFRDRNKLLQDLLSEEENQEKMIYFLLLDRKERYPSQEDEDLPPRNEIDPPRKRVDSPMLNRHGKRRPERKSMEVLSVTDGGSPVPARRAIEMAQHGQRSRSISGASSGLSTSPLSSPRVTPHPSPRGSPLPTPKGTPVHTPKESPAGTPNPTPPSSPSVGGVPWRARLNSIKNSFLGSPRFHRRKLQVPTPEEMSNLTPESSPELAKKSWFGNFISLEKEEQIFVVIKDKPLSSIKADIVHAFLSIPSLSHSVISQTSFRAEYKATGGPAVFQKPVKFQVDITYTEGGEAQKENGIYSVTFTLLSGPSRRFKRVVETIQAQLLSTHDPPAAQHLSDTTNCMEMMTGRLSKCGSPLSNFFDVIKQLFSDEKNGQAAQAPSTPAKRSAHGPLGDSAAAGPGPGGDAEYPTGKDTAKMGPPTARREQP

[2] = biological target: Proto-oncogene tyrosine-protein kinase Src (Homo sapiens) (UniProt P12931); assay: Inhibition of human c-Src assessed as enzyme activity at 1 uM using poly[Glu:Tyr] (4:1) as substrate preincubated for 20 mins followed by [gamma-33P]-ATP addition and measured after 120 mins by radiometric Hot-SpotSM Kinase assay relative to control
[3] = biological target: T2, Serine/threonine-protein kinase 3 (Homo sapiens) (UniProt Q13188); assay: Inhibition of human MST2 assessed as enzyme activity at 1 uM using myelin basic protein as substrate preincubated for 20 mins followed by [gamma-33P]-ATP addition and measured after 120 mins by radiometric Hot-SpotSM Kinase assay relative to control
T2 sequence (whole entry): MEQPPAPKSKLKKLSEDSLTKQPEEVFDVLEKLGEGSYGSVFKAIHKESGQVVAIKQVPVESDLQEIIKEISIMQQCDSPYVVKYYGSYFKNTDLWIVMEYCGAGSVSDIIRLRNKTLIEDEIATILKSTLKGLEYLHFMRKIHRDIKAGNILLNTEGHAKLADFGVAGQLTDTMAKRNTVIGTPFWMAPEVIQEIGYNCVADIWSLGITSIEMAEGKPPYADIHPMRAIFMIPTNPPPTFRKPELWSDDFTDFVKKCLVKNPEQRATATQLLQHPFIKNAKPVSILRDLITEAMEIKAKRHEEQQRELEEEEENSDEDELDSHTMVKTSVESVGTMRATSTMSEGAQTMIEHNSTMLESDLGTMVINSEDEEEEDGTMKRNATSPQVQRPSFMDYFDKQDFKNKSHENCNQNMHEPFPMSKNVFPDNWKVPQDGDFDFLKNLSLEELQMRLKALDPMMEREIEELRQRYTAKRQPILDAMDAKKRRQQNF

[4] = biological target: Serine/threonine-protein kinase PAK 3 (Homo sapiens) (UniProt O75914); assay: Inhibition of human PAK3 assessed as enzyme activity at 1 uM using RRRLSFAEPG as substrate preincubated for 20 mins followed by [gamma-33P]-ATP addition and measured after 120 mins by radiometric Hot-SpotSM Kinase assay relative to control
[5] = biological target: T3, cGMP-dependent protein kinase 1 (Homo sapiens) (UniProt Q13976); assay: Inhibition of human PKG1b assessed as enzyme activity at 1 uM using LRRASLG as substrate preincubated for 20 mins followed by [gamma-33P]-ATP addition and measured after 120 mins by radiometric Hot-SpotSM Kinase assay relative to control
T3 sequence (whole entry): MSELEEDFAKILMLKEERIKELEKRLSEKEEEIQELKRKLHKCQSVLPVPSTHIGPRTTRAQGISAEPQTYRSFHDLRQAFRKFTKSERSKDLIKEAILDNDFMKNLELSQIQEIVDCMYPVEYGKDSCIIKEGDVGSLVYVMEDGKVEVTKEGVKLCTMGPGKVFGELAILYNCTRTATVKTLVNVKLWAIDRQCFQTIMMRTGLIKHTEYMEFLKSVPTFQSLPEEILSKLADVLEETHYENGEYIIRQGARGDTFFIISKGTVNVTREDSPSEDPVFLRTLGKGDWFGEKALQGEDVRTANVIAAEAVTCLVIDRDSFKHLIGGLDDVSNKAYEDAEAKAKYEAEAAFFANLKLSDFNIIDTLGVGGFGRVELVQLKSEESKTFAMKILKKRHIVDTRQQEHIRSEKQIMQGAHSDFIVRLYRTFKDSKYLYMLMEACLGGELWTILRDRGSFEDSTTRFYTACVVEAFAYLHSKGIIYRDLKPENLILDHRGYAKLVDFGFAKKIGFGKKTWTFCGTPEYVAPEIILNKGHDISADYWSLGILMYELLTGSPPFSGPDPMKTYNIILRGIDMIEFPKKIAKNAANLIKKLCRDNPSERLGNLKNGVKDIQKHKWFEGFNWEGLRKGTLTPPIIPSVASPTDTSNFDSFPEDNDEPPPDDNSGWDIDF

[6] = biological target: Serine/threonine-protein kinase SIK2 (Homo sapiens) (UniProt Q9H0K1); assay: Inhibition of human SIK2 assessed as enzyme activity at 1 uM using AMARAASAAALARRR as substrate preincubated for 20 mins followed by [gamma-33P]-ATP addition and measured after 120 mins by radiometric Hot-SpotSM Kinase assay relative to control

Structure (SMILES)	Activity [1] [%]	Activity [2] [%]	Activity [3] [%]	Activity [4] [%]	Activity [5] [%]	Activity [6] [%]
CC[C@H](Nc1ncnc2[nH]cnc12)c1nc2cccc(F)c2c(=O)n1-c1ccccc1	98.9	85.2	96.9	94.5	99.8	98.5
C[C@H](Nc1ncnc2nc[nH]c12)c1cc2cccc(Cl)c2c(=O)n1-c1ccccc1	95.1	86.7	94.5	95.5	95.9	94
CC(C)Oc1ccc(-c2nn([C@@H](C)c3oc4ccc(F)cc4c(=O)c3-c3cccc(F)c3)c3ncnc(N)c23)cc1F [UMBRALISIB]	99.1	87.6	97.4	96.5	90.3	95.4

Source: ChEMBL document CHEMBL5715954, “Silencing c-Myc translation as a therapeutic strategy through targeting PI3Kδ and CK1ε in hematological malignancies” (Blood, 2017)
